Values of other authors, collected in PMC10135567, “New Indole-3-Propionic Acid and 5-Methoxy-Indole Carboxylic Acid Derived Hydrazone Hybrids as Multifunctional Neuroprotectors” (Antioxidants, 2023).

System: SH-SY5Y cells and isolated rat-brain synaptosomes
Design: method as in PMID 35624746
Conditions: SH-SY5Y cells and rat-brain synaptosomes under toxic agents of oxidative stress; cited from earlier work

SMILES: O=C(CCn1c(=S)n(CCC(=O)N/N=C/c2cccc(O)c2O)c2ccccc21)N/N=C/c1cccc(O)c1O [VIII]
- cellular and synaptosomal viability restored: up to 80%
